Reference: US20250352500A1, “USE OF PHENOLIC ACIDS DERIVATIVES IN TREATING ISCHEMIC STROKE” (LANZHOU UNIVERSITY, priority 2022, published 2025)

Legend:
Assay type in all cases: in vivo, male C57/BL mice
iba1 = iba1 protein Western blot in brain tissue; conditions: for iba1 protein expression reduced compared with MCAO group: three days of administration, compound 2 100 mg/kg, compound 1 50 mg/kg
Protocol: (§1) Grouping and administration method: Male C57/BL mice weighing 23±1 g were randomly divided into sham operation group (SHAM), model group (MCAO), compound 2 group (100 mg/kg), and compound 1 group (50 mg/kg), with 10 mice in each group. Mice in the SHAM group underwent vascular isolation, but no […] was administered, and no treatment was given before or after surgery. The model group mice were constructed with MCAO models and were not treated before and after surgery. The treatment group was treated with compound 2 or compound 1 on the basis of the model group. Mice with a neurological score of 0 after reperfusion and those that died before 72 hours post-surgery were excluded. The administration time for animal behavior tests was seven times at 0 h, 1 day, 2 days, 3 days, 4 days, 5 days, and 6 days after reperfusion, while the administration time for other experiments was three times at 0 h, 1 day, and 2 days after reperfusion. The drug was administered through the tail vein, and the sham operation group and model group were given equal amounts of saline.
The expression level of the specific protein iba1 in microglia in brain tissues was detected by Western blot. (A) The representative WB images of iba1 protein expression in brain tissues of the sham operation group (SHAM), model group (MCAO), compound 2 group, and compound 1 group are shown in FIG. 8A, and the quantitative statistical results are shown in FIG. 8B. […] Compared with the MCAO group, the expression of iba1 protein decreased three days after administration of compound 1. Compared with the compound 1 group, the expression level of iba1 protein in the compound 2 group decreased. In this experiment, β-actin was used as the internal reference protein. n=3, data are presented as mean±SEM, analyzed with one-way ANOVA, and subjected to Tukey's HSD test. *P<0.05, **P<0.01, ***P<0.001. ^#P<0.05, ^##P<0.01, ^###P<0.001. * indicates comparison with the SHAM group, ^# indicates a comparison with the Compound 2 group.

IL-1β = experiment: ELISA of IL-1β in brain homogenate; conditions: 72 h, three days of administration, compound 2 100 mg/kg, compound 1 50 mg/kg
Protocol: as §1, with “The administration time for animal behavior tests was seven times at 0 h, 1 day, 2 days, 3 days, 4 days, 5 days, and 6 days after reperfusion, while the administration time for other experiments was three times at 0 h, 1 day, and 2 days after reperfusion. The drug was administered through the tail vein, and the sham operation group and model group were given equal amounts of saline.” left out
(§2) To investigate the effect of compounds on the expression of inflammatory factors after ischemia-reperfusion, this study used immunofluorescence experiments to observe the expression of TNF-α, IL-1β, IL-6, iNOS, and COX2 proteins in brain tissue. […] The concentrations of TNF-α, IL-1β, and IL-6 in brain homogenate were detected by enzyme-linked immunosorbent assay (ELISA), and the expression level of TNF-α protein in brain tissue was detected by Western blot.
(§3) After 72 hours of ischemia-reperfusion, the expression levels of inflammatory factors TNF-α, IL-1β, and IL-6 in the mouse brain homogenate were detected.

TNF-α = experiment: ELISA of TNF-α in brain homogenate; conditions: 72 h, three days of administration, compound 2 100 mg/kg, compound 1 50 mg/kg
Protocol: as §1, with “The administration time for animal behavior tests was seven times at 0 h, 1 day, 2 days, 3 days, 4 days, 5 days, and 6 days after reperfusion, while the administration time for other experiments was three times at 0 h, 1 day, and 2 days after reperfusion. The drug was administered through the tail vein, and the sham operation group and model group were given equal amounts of saline.” left out
as §2, §3

GFAP = GFAP immunofluorescence in brain tissue (astrocytes); conditions: 72 h ischemia-reperfusion, three days of administration; compound 2 100 mg/kg, compound 1 50 mg/kg; MCAO group 481±67; mean±SEM, n=3
Protocol: as §1, with “The administration time for animal behavior tests was seven times at 0 h, 1 day, 2 days, 3 days, 4 days, 5 days, and 6 days after reperfusion, while the administration time for other experiments was three times at 0 h, 1 day, and 2 days after reperfusion. The drug was administered through the tail vein, and the sham operation group and model group were given equal amounts of saline.” left out
To investigate whether compound 2 has an effect on the activation and proliferation of astrocytes during ischemia-reperfusion, this study used immunofluorescence experiments to observe and detect the fluorescence expression of GFAP in brain tissues from the sham operation group, model group, compound 2 group, and compound 1 group. […] After 72 hours of ischemia-reperfusion, the activation and proliferation of GFAP protein in astrocytes in the brain region were analyzed by immunofluorescence staining. […]

HIF-1α [1] = experiment: HIF-1α protein Western blot in brain tissue; conditions: 72 h; for HIF-1α protein expression reduced compared with MCAO model group: three days of administration, compound 2 100 mg/kg, compound 1 50 mg/kg
Protocol: as §1
HIF-1α is a sensitive regulator of oxygen homeostasis, rapidly inducing its expression after hypoxia-ischemia. It plays a wide range of roles in the pathophysiology of stroke, including neuronal survival, neuroinflammation, angiogenesis, glucose metabolism, and blood-brain barrier regulation. It can not only produce specific sensations in the case of hypoxia, but also facilitate the maintenance of oxygen homeostasis in the body. […]
After 72 hours of ischemia-reperfusion, the expression level of HIF-1α protein in brain tissue was detected by Western blot. […] In this experiment, β-actin was used as the internal reference protein. n=3, data are mean±SEM, analyzed using one-way ANOVA and Tukey's HSD test. *P<0.05, **P<0.01, ***P<0.001. ^#P<0.05, ^##P<0.01, ^###P<0.001. * indicates a comparison with the SHAM group, ^# indicates a comparison with the compound 2 group.

IL-6 = experiment: ELISA of IL-6 in brain homogenate; conditions: 72 h, three days of administration, compound 2 100 mg/kg, compound 1 50 mg/kg
Protocol: as §1, with “The administration time for animal behavior tests was seven times at 0 h, 1 day, 2 days, 3 days, 4 days, 5 days, and 6 days after reperfusion, while the administration time for other experiments was three times at 0 h, 1 day, and 2 days after reperfusion. The drug was administered through the tail vein, and the sham operation group and model group were given equal amounts of saline.” left out
as §2, §3

HIF-1α [2] = experiment: HIF-1α immunofluorescence in brain tissue; conditions: 72 h ischemia-reperfusion, three days of administration; compound 2 100 mg/kg, compound 1 50 mg/kg; MCAO group 568±60; mean±SEM, n=3
Protocol: as §1, with “The administration time for animal behavior tests was seven times at 0 h, 1 day, 2 days, 3 days, 4 days, 5 days, and 6 days after reperfusion, while the administration time for other experiments was three times at 0 h, 1 day, and 2 days after reperfusion. The drug was administered through the tail vein, and the sham operation group and model group were given equal amounts of saline.” left out
After 72 hours of ischemia-reperfusion, the expression changes of the inflammatory factor HIF-1α in the brain region were analyzed by immunofluorescence staining. […] Compared with the compound 1 group, the number of HIF-1α-positive cells in the compound 2 group was lower (197±33 vs 250±54/mm^2, P<0.001). n=3, data are presented as mean±SEM, analyzed using one-way ANOVA, and subjected to Tukey's HSD test. *P<0.05, **P<0.01, ***P<0.001. ^#P<0.05, ^##P<0.01, ^###P<0.001. * indicates a comparison with the MCAO group, ^# indicates comparison with the compound 2 group.

[3] = compound 2 100 mg/kg vs compound 1 50 mg/kg

For `O=C(O)c1cc(O)ccc1O` [compound 1], the “iba1 protein expression reduced compared with MCAO group” value (iba1) was “decreased”, the “Decrease in IL-1β expression compared with MCAO group” value (IL-1β) was “reduced to varying degrees” and the “Decrease in TNF-α expression compared with MCAO group” value (TNF-α) was “reduced to varying degrees”. The “Number of GFAP-positive cells” value (GFAP) was 327±50 /mm^2, the “HIF-1α protein expression reduced compared with MCAO model group” value (HIF-1α [1]) was 46±10% and the “Decrease in IL-6 expression compared with MCAO group” value (IL-6) was “reduced to varying degrees”. For the same compound, the “Number of HIF-1α-positive cells” value (HIF-1α [2]) was 250±54 /mm^2.
In the case of `O=C(O)c1cc(OP(=O)(O)O)ccc1OP(=O)(O)O` [compound 2], the “iba1 protein expression level compared with the compound 1 group” value (iba1; [3]) is reported as “decreased”, the “iba1 protein expression reduced compared with MCAO group” value (iba1) is reported as 50±12% and the “Decrease in IL-1β expression compared with MCAO group” value (IL-1β) is reported as 32±9%. The “Decrease in TNF-α expression compared with MCAO group” value (TNF-α) was 40±10%, the “Number of GFAP-positive cells” value (GFAP) was 195±45 /mm^2 and the “HIF-1α protein expression level compared with the compound 1 group” value (HIF-1α [1]; [3]) was “significantly reduced”. The “HIF-1α protein expression reduced compared with MCAO model group” value (HIF-1α [1]) was 53±10%, the “Decrease in IL-6 expression compared with MCAO group” value (IL-6) was 40±10% and the “Number of HIF-1α-positive cells” value (HIF-1α [2]) was 197±33 /mm^2.
